Tested on: patients with metastatic breast cancer
Details: DPPE pretreatment
Procedure: In the specific Phase II clinical trial described herein, there was employed 6 mg/kg of DPPE in the form of its hydrochloride salt, administered intravenously as an aqueous solution thereof over 80 minutes, with the last 20 minutes being accompanied by infusion of the chemotherapeutic agents doxorubicin or epirubicin in combination with Taxol or Taxotere followed by the intravenous administration of an aqueous solution at a dose of 2.5 mg/kg of DPPE for 180 minutes accompanied by the infusion of Taxol or for 60 minutes accompanied by the infusion of Taxotere.
In the specific Phase II clinical trial described herein, there was employed 50 mg/M^2 of doxorubicin/epirubicin and either 175 mg/^2 Taxol or 75 mg/M^2 Taxotere administered over the last 20 minutes of infusion of the DPPE solution and over a further 180 minutes for Taxol or 60 minutes for Taxotere, accompanied by infusion of a 2.5 mg/kg of DPPE solution.
29 patients with metastatic breast cancer were treated with a combination of DPPE and epirubicin/Taxol (N=22), DPPE and doxorubicin/Taxol (N=6) or a combination of DPPE and epirubicin/Taxotere (N=1). […]

CCN(CC)CCOc1ccc(Cc2ccccc2)cc1 [DPPE, N,N-diethyl-2-[4-(phenylmethyl)-phenoxy]ethanamine]
TTP in comparison to patients not receiving DPPE treatment: did not improve | overall survival of patients receiving DPPE (compared with published studies): significantly improved

— patent US20060089317A1, “Treatment of metastatic breast cancer with anthracyclines, and taxanes” (The University Of Manitoba, priority 2002, published 2006)
